Test results taken from patent US12622968B2, “Formulation for oral delivery of proteins, peptides and small molecules with poor permeability” (R.P. Scherer Technologies, LLC, priority 2019, dated 2026).
“And” between values parts separate entries of the source, which are not always exact repeats. Equal entries are not always repeated. Where two headings read alike, the source gives them in different places.

Assay: Single dose oral capsule pharmacokinetics of BHV-3500 in dogs (plasma LC-MS/MS)
Assay type: in vivo, beagle dogs
Conditions: for AUC(0-t): read-out: AUC0-4 hr; for concentration at 0.5 h: 0.5 h post-dose
Experimental: The pharmacokinetics (PK) of BHV-3500 after a single oral capsule of BHV-3500 in dogs were investigated.
After each dose, blood samples (approximately 3 mL from the jugular vein) for determination of plasma levels of BHV-3500 were obtained from of each dog at six time points (pre-dose; 15, 30, and 60 minutes and 2 and 4 hours post-dose. EDTA was used as the anticoagulant. Plasma samples were frozen at approximately −70′C until analyzed.
For the determination of BHV-3500 in plasma, a 50 μL aliquot from each sample was transferred into the appropriate well of a 96-well plate to which 10 μL of 50% acetonitrile (ACN) in water was added, followed by 250 μL of internal standard solution (10 ng/mL BHV-3500-d8 in ACN). After sealing the plate and vortexing for approximately 5 minutes, the plate was centrifuged at 4,000 rpm for 10 minutes at 4±4° C. A portion (100 μL) of the resulting supernatant was transferred to into the appropriate well (containing 300 μL 0.15% formic acid in water) of another 96-well plate. This plate was sealed and its contents mixed prior to instrumental analysis.
Freshly prepared BHV-3500 standard curves and QC samples were analyzed along with the study samples. Instrument calibrators were prepared by adding 10 μL of a stock BHV-3500 solution to 50 μL of blank dog plasma. Blank dog plasma was sourced from BioIVT (Hicksville, NY) and stored frozen at −20° C. Nominal calibrator concentrations ranged from 2.00 to 200 ng/mL. QC samples were prepared at concentrations of 6.00, 50.0 and 150 ng/mL. Calibrators and QC samples were processed for analysis following the extraction procedure described above.
Calibrator, QC and study samples were analyzed under LC-S/MS instrument conditions detailed in Table 7.
Calibration curves were calculated from the linear regression (weighting factor of 1/x2) of the analyte to internal standard peak area ratios versus the analyte concentrations. Concentrations of analyte in the samples were determined using the peak area ratios and the regression parameters of the calibration curves.
Individual animal plasma BHV-3500 concentration data at scheduled (nominal) sampling times were analyzed using the non-compartmental model f r extravascular administration with Phoenix WinNonlin software (Version 8.1; Certara, Princeton, NJ).
Elimination rate constant values (λz) were calculated by log-linear regression on data points of the terminal phase (using Phoenix WinNonlin's Best Fit Lambda Z Calculation Method option) when allowed by the data; the plasma elimination half-life (t1/2) was calculated as ln(2)/λz. Area under the plasma concentration-time curve values from time zero to the concentration at the 4 hour time point (AUC0-4 hr) were calculated by the linear-up/log-down trapezoidal rule.
Nominal dose levels were used for PK analysis. The PK parameters listed below were evaluated (as applicable and when allowed by the data). • Elimination half-life (t1/2) • Time of occurrence of maximum plasma concentration (Tmax) • Maximum plasma concentration (Cmax) • Area under plasma concentration-time curve [0 to the 4 hour time point; AUC0-4hr]

[1] = Group 6, oral capsule, 50 mg BHV-3500 in 25 mg DDM, individual dogs
[2] = female, beagle, dog, plasma, po, 20 mg, Group 3, oral capsule, 20 mg BHV-3500 in 25 mg DDM, average
[3] = female, beagle, dog, plasma, po, 20 mg, Group 3, oral capsule, 20 mg BHV-3500 in 25 mg DDM, individual dogs

In the case of `Cc1cc(C[C@@H](NC(=O)N2CCC(c3cc4ccccc4[nH]c3=O)CC2)C(=O)N2CCN(C3CCN(C)CC3)CC2)cc2cn[nH]c12` [BHV-3500, (R)—N-(3-(7-methyl-1H indazol-5-yl)-1-(4-(1-methylpiperidin-4-yl)piperazin-1-yl)-1-oxopropan-2-yl)-4-(2-oxo-1,2 dihydroquinolin-3-yl)piperidine-1-carboxamide], the “BHV-3500 Concentration in Dog Plasma” value (Group 6, oral capsule, 50 mg BHV-3500 in 25 mg DDM, 2 h post-dose, individual dogs) is reported as “BQL (BQL = below quantitation limit (2.0 ng/mL))”, the “BHV-3500 Concentration in Dog Plasma” value (Group 6, oral capsule, 50 mg BHV-3500 in 25 mg DDM, 4 h post-dose, individual dogs) is reported as “BQL (BQL = below quantitation limit (2.0 ng/mL))” and the AUC0-4 hr [1] is reported as 10.6 ng·h/mL and 24.0 ng·h/mL. The Cmax [1] was 5.34 ng/mL and 2.42 ng/mL and 12.0 ng/mL, the Tmax [1] was 1 h and the concentration at 2 h (female, beagle, dog, plasma, oral, 20 mg, Group 2, 20 mg with Vehicle 6, 2 hours post-dose, read-out: mean plasma exposure) was 22 nM. The concentration at 2 h (female, beagle, dog, plasma, oral, 20 mg, Group 3, 20 mg with DDM, 2 hours post-dose, read-out: mean plasma exposure) was 29.5 nM, the concentration at 1 h (female, beagle, dog, plasma, oral, 50 mg, Group 5, 50 mg with Vehicle 6, 1 hour post-dose, read-out: mean plasma exposure) was 18 nM and the concentration at 2 h (female, beagle, dog, plasma, oral, 50 mg, Group 5, 50 mg with Vehicle 6, 2 hours post-dose, read-out: mean plasma exposure) was 63.3 nM. The concentration at 4 h (female, beagle, dog, plasma, oral, 50 mg, Group 6, 50 mg with DDM, 4 hours post-dose, read-out: mean plasma exposure) was 13.5 nM, the concentration at 1 h (female, beagle, dog, plasma, po, 20 mg, Group 2, oral capsule, 20 mg BHV-3500 in 900 mg vehicle of Formulation 2 (SEDDS excipients), 1 h post-dose, average, read-out: BHV-3500 Concentration in Dog Plasma) was 2.57 ng/mL and the concentration at 2 h (female, beagle, dog, plasma, po, 20 mg, Group 2, oral capsule, 20 mg BHV-3500 in 900 mg vehicle of Formulation 2 (SEDDS excipients), 2 h post-dose, average, read-out: BHV-3500 Concentration in Dog Plasma) was 14.2 ng/mL. It also gave a concentration at 4 h (female, beagle, dog, plasma, po, 20 mg, Group 2, oral capsule, 20 mg BHV-3500 in 900 mg vehicle of Formulation 2 (SEDDS excipients), 4 h post-dose, average, read-out: BHV-3500 Concentration in Dog Plasma) of 3.09 ng/mL, an AUC(0-t) (female, beagle, dog, plasma, po, 20 mg, Group 2, oral capsule, 20 mg BHV-3500 in 900 mg vehicle of Formulation 2 (SEDDS excipients), average) of 19.8 ng·h/mL and a Cmax (female, beagle, dog, plasma, po, 20 mg, Group 2, oral capsule, 20 mg BHV-3500 in 900 mg vehicle of Formulation 2 (SEDDS excipients), average, read-out: Cmax) of 14.2 ng/mL. The AUC(0-t) (female, beagle, dog, plasma, po, 20 mg, Group 2, oral capsule, 20 mg BHV-3500 in 900 mg vehicle of Formulation 2 (SEDDS excipients), individual dogs) was 19.8 ng·h/mL, the Tmax (female, beagle, dog, plasma, po, 20 mg, Group 2, oral capsule, 20 mg BHV-3500 in 900 mg vehicle of Formulation 2 (SEDDS excipients), individual dogs, read-out: Tmax) was 2 h and the Tmax (female, beagle, dog, plasma, po, 20 mg, Group 2, oral capsule, 20 mg BHV-3500 in 900 mg vehicle of Formulation 2 (SEDDS excipients), median, read-out: Tmax) was 2 h. For the same molecule, the concentration at 0.5 h [2] was 14 ng/mL, the concentration at 0.5 h [3] was 14 ng/mL and the concentration at 1 h (female, beagle, dog, plasma, po, 20 mg, Group 3, oral capsule, 20 mg BHV-3500 in 25 mg DDM, 1 h post-dose, average, read-out: BHV-3500 Concentration in Dog Plasma) was 3.56 ng/mL. For the same molecule, the concentration at 1 h (female, beagle, dog, plasma, po, 20 mg, Group 3, oral capsule, 20 mg BHV-3500 in 25 mg DDM, 1 h post-dose, individual dogs, read-out: BHV-3500 Concentration in Dog Plasma) was 3.56 ng/mL, the concentration at 2 h (female, beagle, dog, plasma, po, 20 mg, Group 3, oral capsule, 20 mg BHV-3500 in 25 mg DDM, 2 h post-dose, average, read-out: BHV-3500 Concentration in Dog Plasma) was 18.9 ng/mL and the concentration at 4 h (female, beagle, dog, plasma, po, 20 mg, Group 3, oral capsule, 20 mg BHV-3500 in 25 mg DDM, 4 h post-dose, average, read-out: BHV-3500 Concentration in Dog Plasma) was 2.18 ng/mL. It also gave a concentration at 4 h (female, beagle, dog, plasma, po, 20 mg, Group 3, oral capsule, 20 mg BHV-3500 in 25 mg DDM, 4 h post-dose, individual dogs, read-out: BHV-3500 Concentration in Dog Plasma) of 2.18 ng/mL, an AUC(0-t) [2] of 48.1 ng·h/mL and a Cmax (female, beagle, dog, plasma, po, 20 mg, Group 3, oral capsule, 20 mg BHV-3500 in 25 mg DDM, average, read-out: Cmax) of 17.3 ng/mL. The AUC(0-t) [3] was 48.1 ng·h/mL.
